In PMC9785441, “A Broad Spectrum Antiparasitic Activity of Organotin (IV) Derivatives and Its Untargeted Proteomic Profiling Using Leishmania donovani” (Pathogens, 2022):
Read-outs that look alike come from different tables or passages of the source.

Legend:
[1] = test system: L. donovani promastigotes; experiment: L. donovani promastigote viability assay (resazurin); type: cell-based, Leishmania donovani; conditions: for EC50: promastigotes, 48 h, read-out: EC50 L. donovani (pro)
Description: Promastigotes of L. donovani from late log phase culture were diluted to 2.0 × 10^6/mL in M-199 containing 10% FBS, 25 mM HEPES (Gibco 15630-080), 100 µM adenine, 12 mM NaHCO3, 10 µM folic acid, 1% penicillin/streptomycin (Gibco 15140-122) as described previously. Compounds and controls were transferred from compound plates to 384 well assay plates with the use of an acoustic transfer system (ATS, EDC Biosystems, Fremont, CA, USA). Promastigotes were incubated with compounds at 29 °C for 48 h. To measure parasite viability, resazurin sodium salt (7-hydroxy-3H-phenoxazin3-one 10-oxide) was dissolved in PBS and added to each well at a volume of 5 µL (final concentration of 44 µM). After incubating for 4 h at room temperature, fluorescence (ex 571 nm/em 584 nm) was recorded with an Envision (Perkin Elmer, Waltham, MA, USA) microplate fluorescence/luminescence reader. […] For positive and negative control amphotericin B and 0.5% DMSO was used, respectively. Dose response and EC50 analyses were obtained using GraphPad Prism 9 Software (Graph Pad Software Inc., San Diego, CA, USA).

[2] = test system: L. donovani intracellular amastigotes; experiment: L. donovani intracellular amastigote assay in B10R cells (high content imaging); type: cell-based, Leishmania donovani
Description: For the intracellular amastigote stage assay, L. donovani was incubated at a density of 1 × 10^6 parasites/mL for six days at 29 °C before infection to enrich the proportion of metacyclic promastigotes. B10R monocyte cell lines were cultured in RPMI supplemented with 10% FBS and 1%penicillin/streptomycin at 37 °C in 5% CO2. After 72 h, cells were counted with a hemocytometer and mixed with the six-day-old parasites. Into 384-well assay plates, that had been pre-spotted with compounds diluted 1000-fold in DMSO, with final assay concentrations ranging from 20 µM to 0.02 µM and tested in biological triplicates., 500 B10R cells and 7000 parasites were dispensed per well in a final volume of 50 µL using a Multidrop Combi liquid dispenser (ThermoScientific, Waltham, MA, USA). Plates were incubated at 37 °C and 5% CO2 for 72 h. Cultures were then fixed with 4% formaldehyde solution for 30 min and stained with 0.5 µg/mL DAPI (diamidino-2-phenylindole). Plates were then imaged using an ImageXpress Micro XLS automated high content imager (Molecular Devices, San Jose, CA, USA) using a 10× air objective. A custom image analysis module generated in ImageXpress was used to count the nuclei of host and parasite cells. EC50 values were obtained using the GraphPad Prism 9 Software with biological triplicates.

[3] = test system: T. cruzi (infecting C2C12); experiment: T. cruzi intracellular amastigote assay in C2C12 cells (high content imaging); type: cell-based, Trypanosoma cruzi; conditions: for EC50: intracellular amastigotes, 72 h, read-out: EC50 T. cruzi (infecting C2C12)
Description: (§1) Mouse C2C12 myoblasts (ATCC CRL-1772) were cultivated in RPMI 1640 medium supplemented with 5% FBS and kept at 37 °C and 5% CO2. T. cruzi CAI-72 trypomastigotes were obtained from the supernatant of C2C12 cells infected four to seven days previously. For the assay, 500 C2C12 cells were mixed with 7500 T. cruzi parasites and seeded into 384-well plates at a 50 µL final volume. Test compounds and reference drugs (Benznidazole and K11777) were pre-spotted into the 384 well black bottom plates prior to the addition of cells and parasites with final assay concentration of 20 µM to 0.02 µM. The plates were incubated at 37 °C^, 5% CO2 for 72 h. Cultures were then fixed with 4% formaldehyde and 0.5 µg/mL DAPI (diamidino-2-phenylindole) was added for staining nucleic acids. Plates were kept protected from light for 1 h and then imaged in an ImageXpress Micro XLS automated high content imager (Molecular Devices, San Jose, CA, USA). Imaging and data analysis were performed as described for L. donovani amastigotes on biological triplicates.

C2C12 cells = experiment: Cytotoxicity to C2C12 host cells; type: cell-based; conditions: mouse myoblast host cells, 72 h
Description: as §1

[4] = test system: T. b. brucei Lister 427 bloodstream forms; experiment: T. brucei bloodstream form viability assay (SYBR Green); type: cell-based, Trypanosoma brucei; conditions: for EC50: bloodstream forms, 72 h
Description: Bloodstream forms of T. b. brucei Lister 427 were cultured in complete HMI-9 medium in T25 suspension culture flasks (Thermo Scientific, Cat. 12-566-84) and maintained at 37 °C and 5% CO2. Trypanosomes were kept in log-phase growth and passaged every 48 h. […] Pentamidine were used as a positive control for T. brucei assay. Compounds were diluted with fresh HMI-9 medium (99 µL/well). Parasites in log-phase were suspended at 2 × 10^5 parasites/mL in HMI-9 medium and then added to each well (100 µL) to give 2 × 10^4 trypanosomes/well. Assay plates were incubated at 37 °C and 5% CO2 for 72 h. Parasite lysate was obtained by addition of 50 µL/well of lysis solution (0.012% saponin, 0.12% Triton X-100, 7.5 mM ETDA, 30 mM Tris, pH 7.5) containing 0.3 µL/mL SYBR Green I (10,000× in DMSO; Invitrogen, Carlsbad, CA, USA). Assay plates were incubated in the dark for 1 h at room temperature. Fluorescence was measured at 485 nm excitation and 535 nm emission wavelengths using an EnVision multilabel plate reader (PerkinElmer, Waltham, MA, USA). In each assay plate, parasite viability was normalized relative to positive (pentamidine) and negative (0.5% DMSO) controls in each assay plate. Assays were performed in biological and technical duplicates, and dose–response and EC50 data were generated with GraphPad Prism 9 using a sigmoidal four parameter logistic curve.

HEK-293T cells = experiment: HEK293 cytotoxicity assay (resazurin); type: cell-based; conditions: human embryonic kidney cells, 48 h, max 4 µM; read-out: CC50 HEK923
Description: HEK-293T cells were cultured in DMEM (Gibco) supplemented with 10% heat inactivated FBS (Corning) and 1% penicillin-streptomycin (Gibco). Cells were maintained in vented T75 cell culture flasks (Thermo Scientific, Cat. 12-565-349) at 37 °C and 5% CO2, and were passaged every 72 h. […] Compounds were diluted with fresh DMEM (49 µL/well). HEK-293 cells were suspended at 4 × 10^5 cells/mL in DMEM and added to each well (50 µL/well) to give 2 × 10^4 cells/well. Assay plates were incubated at 37 °C and 5% CO2 for 48 h, followed by addition of 20 µL of 0.5 mM resazurin (Alfa Aesar, Cat. B21187) in PBS to each well. […] In each assay plate, cell viability was normalized relative to positive and negative controls. Assays were performed in biological and technical duplicates, and dose–response and CC50 data were generated with GraphPad Prism 5 using a sigmoidal four parameter logistic curve.

[5] = in B10R cells, 72 h, read-out: EC50 L. donovani ntracelular amastigotes

Compound | EC50 [1] | EC50 [2, 5] | EC50 [3] | CC50 (C2C12 cells) | EC50 [4] | CC50 (HEK-293T cells) | L. donovani intracellular parasites eliminated ([2]; 5 µM) | T. cruzi intracellular parasites eliminated ([3]; 5 µM) | T. brucei eliminated ([4]; 5 µM) | IC50 ([1]; Figure S1 dose response curves, RFU, read-out: IC50 against the promastigotes of L. donovani) | EC50 ([2]; Leishmania donovani, range over L. donovani and T. cruzi intracellular stages and both parent compounds, read-out: EC50 values against the intracellular stages of both parasites) | EC50 ([3]; Trypanosoma cruzi, C2C12, 72 h) | EC50 ([4]; Trypanosoma brucei)
CCC[CH2][Sn]([CH2]CCC)([O]C(=O)CCC(=O)Nc1ccc(OC)cc1)[O]C(=O)CCC(=O)Nc1ccc(OC)cc1 [MS26Bu2] | 760 nM | 280 nM | 530 nM | 140 nM | 290 nM | 370 nM | – | – | – | – | – | – | –
COc1ccc(NC(=O)CCC(=O)[O-])cc1.[Na+] [MS26Na, sodium 4-(4-methoxyphenylamino)-4 oxobutanoate] | 170 nM | 3880 nM | 4270 nM | 1610 nM | > 4000 nM | > 4000 nM | – | – | – | – | – | – | –
COc1ccc(NC(=O)CCC(=O)[O][Sn]([CH3])([CH3])[CH3])cc1 [MS26Me3] | > 20000 nM | 3260 nM | > 20000 nM | 9410 nM | > 4000 nM | 1240 nM | – | – | – | – | – | – | –
C=[CH][Sn]([CH]=C)([O]C(=O)CCC(=O)Nc1ccc(OC)cc1)[O]C(=O)CCC(=O)Nc1ccc(OC)cc1 [MS26vin2] | > 20000 nM | > 20000 nM | > 20000 nM | > 20000 nM | > 4000 nM | > 4000 nM | – | – | – | – | – | – | –
CCC[CH2][Sn]([CH2]CCC)([CH2]CCC)[O]C(=O)CCC(=O)Nc1ccc(OC)cc1 [MS26Bu3] | 220 nM | 210 nM | 110 nM | 220 nM | 50 nM | 140 nM | – | – | – | – | – | – | –
CCC[CH2][Sn]([Cl])([Cl])[O]C(=O)CCC(=O)Nc1ccc(OC)cc1 [MS26BuSnCl2] | > 20000 nM | > 20000 nM | > 20000 nM | 18100 nM | > 4000 nM | > 4000 nM | – | – | – | – | – | – | –
C[CH2][Sn]([CH2]C)([CH2]C)[O]C(=O)CCC(=O)Nc1ccc(OC)cc1 [MS26Et3] | 210 nM | 190 nM | 240 nM | 2790 nM | 90 nM | – | > 95% | > 95% | > 99% | – | – | – | –
COc1ccc(NC(=O)CCC(=O)[O][Sn]([CH]2CCCCC2)([CH]2CCCCC2)[CH]2CCCCC2)cc1 [MS26Cy3] | – | – | 300 nM | – | 80 nM | 110 nM | – | – | – | 600 nM | – | – | –
COc1ccc(NC(=O)CCC(=O)O)cc1 [MS26, 4-(4-methoxyphenylamino)-4 oxobutanoic acid] | > 20000 nM | 1080 nM | – | > 20000 nM | – | – | – | – | – | – | 1080 to 4270 nM | 3210 nM | > 4000 nM
COc1ccc(NC(=O)CCC(=O)[O][Sn]([c]2ccccc2)([c]2ccccc2)[c]2ccccc2)cc1 [MS26Ph3] | 390 nM | 9100 nM | > 20000 nM | 410 nM | 90 nM | 360 nM | – | – | – | – | – | – | –
